From patent US8192962B2, “Processes for detecting toxic substances” (Daikin Industries, Ltd., priority 2001, dated 2012)

System: Stress protein genes
Assay: DNA chip mRNA expression in yeast, stress protein genes (Table 6)
Type: cell-based, Saccharomyces cerevisiae S288C
Summary of the method: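 Untreated cultures served as reference for log-phase S288C yeast given a growth-inhibiting, non-lethal toxicant dose for 2 h at 25° C. in YPD. Gene expression was measured on a whole-genome DNA chip from Cy3/Cy5-labeled cDNA.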

Measured: The level of expressed mRNA in the presence of chemical substance/The level of expressed mRNA in the absence of chemical substance

Cl[C@H]1[C@H](Cl)[C@@H](Cl)[C@@H](Cl)[C@H](Cl)[C@H]1Cl [(7), γ-hexachlorocyclohexane]
0.9: yeast gene YCR021C | yeast gene YDR293C | yeast gene YEL030W | yeast gene YJL159W | yeast gene YKL163W | yeast gene YOL161C
2.2: yeast gene YFR052W
1.1: yeast gene YBR067C | yeast gene YER042W | yeast gene YIL033C | yeast gene YLL024C | yeast gene YLL039C | yeast gene YLR006C | yeast gene YML007W | yeast gene YOR208W | yeast gene YPL106C | yeast gene YPL223C
1.4: yeast gene YER057C | yeast gene YFL016C | yeast gene YFL020C | yeast gene YGL115W | yeast gene YPL140C | yeast gene YPL240C
3.2: yeast gene YNL241C
2.6: yeast gene YLR109W
2.7: yeast gene YCL035C
1.3: yeast gene YBL075C | yeast gene YBL093C | yeast gene YGL073W | yeast gene YGL181W | yeast gene YHL046C | yeast gene YHR057C | yeast gene YOR027W | yeast gene YPR026W
0.8: yeast gene YDR033W | yeast gene YER125W | yeast gene YGR088W | yeast gene YJL165C | yeast gene YJR090C | yeast gene YKL164C | yeast gene YOR008C
1.6: yeast gene YDR513W
0.4: yeast gene YJL158C | yeast gene YOR010C
5.5: yeast gene YFL014W
0.6: yeast gene YBR054W | yeast gene YEL039C | yeast gene YIL011W | yeast gene YNL064C | yeast gene YOR009W
3.9: yeast gene YDR258C
2.9: yeast gene YLL026W
1.5: yeast gene YBR044C | yeast gene YDL022W | yeast gene YDR098C | yeast gene YHR104W | yeast gene YPL194W
1.9: yeast gene YDR519W
1.2: yeast gene YAL005C | yeast gene YAL015C | yeast gene YDR155C | yeast gene YDR436W | yeast gene YMR186W | yeast gene YNR076W | yeast gene YOL064C | yeast gene YPR005C
1.7: yeast gene YKR053C
0.7: yeast gene YDR077W | yeast gene YPL059W
2.5: yeast gene YBR169C | yeast gene YMR021C
6.6: yeast gene YBR072W
2.0: yeast gene YIR038C | yeast gene YKL161C | yeast gene YLL060C
1.8: yeast gene YCR083W | yeast gene YHR030C | yeast gene YIR037W | yeast gene YJL128C | yeast gene YLR259C
3.1: yeast gene YML070W
2.4: yeast gene YCR060W | yeast gene YMR173W | yeast gene YNL160W
1.0: yeast gene YDL025C | yeast gene YER103W | yeast gene YJR045C | yeast gene YKL210W
2.3: yeast gene YBR126C
2.1: yeast gene YHL028W
